How the values were obtained:
[1] = system: normal human peripheral blood mononuclear cells (PBMC); test: Colony formation assay, PBMC; format: cell-based
Protocol: The difference in sensitivity stems from the inability of neoplastic cells to adapt to decreases of metabolism.
Cell analysis: Viability and 4F2hc expression are determined by vital dye exclusion and flow cytometry. Oxygen consumption is measured with an XF24 Extracellular Flux Analyzer (Seahorse Bioscience); values are normalized to total protein. Confocal microscopy is performed on either a Zeiss LSM780 or a Nikon Eclipse Ti; vacuolation was monitored using a Nikon TE2000-S equipped with DIC filters. Anchorage-independent growth of SW620 cells is measured in DMEM-10 containing 0.35% agarose with a 0.5% agarose bottom layer. PBMNCs are obtained from the normal blood donor program run by the CTSA-supported Institute for Clinical and Translational Science at UCI under IRB protocols 2015-1883 (Edinger) and 2001-2058 (ICTS). […] Plates were incubated at 37° C. in a humidified atmosphere containing 5% CO2 and colonies were counted after 12 days.
Cell culture and reagents. […] Cell viability was measured by vital dye exclusion using either propidium iodide or DAPI at 1 μg/ml. Analysis of cell surface 4F2hc levels with PE-conjugated anti-CD98 was restricted to viable cells as determined by DAPI exclusion. Anchorage-independent growth of SW620 cells was measured in DMEM-10 containing 0.35% low melt agarose with a 0.5% agarose bottom layer. […]

[2] = system: bound NADH fraction; test: NADH fluorescence lifetime imaging (FLIM); format: cell-based; details: mimicked amino acid and glucose starvation
Description: Cells adapt to nutrient limitation by increasing oxidative phosphorylation. The relative rate of glycolysis and oxidative phosphorylation can be monitored by measuring the fluorescence lifetime of the reduced form of nicotinamide adenine dinucleotide (NADH). A higher ratio of protein-bound to free NADH (increased lifetime) correlates with increased oxidative phosphorylation in multiple cell types both in vitro and in vivo. Oligomycin and rotenone/antimycin A are molecules known in the field to induce glycolysis, whereas 2-deoxy-glucose (2DG) is an inhibitor of glycolysis and subsequently increases oxidative phosphorylation. Starvation of cells by removing access to glucose and amino acids is also known to increase oxidative phosphorylation. […]
NADH Fluorescence Lifetime Imaging Microscopy (FLIM). […] The excitation wavelength was 740 nm and a dichroic filter (690 nm) was used to separate the fluorescence signal from the laser light. […] The fluorescence was detected by a hybrid detector (HPM-100 Hamamatsu). […] The FLIM system was calibrated during each imaging session by measuring the fluorescence decay of fluorescein with a single exponential of 4.04 nsec. […] Data was processed by the SimFCS software developed at the Laboratory of Fluorescence Dynamics at UCI. […]

## CCCCCCCCc1ccc([C@H]2CCN[C@@H]2CO)cc1.Cl [Compound 5, (2S,3R)-2-(hydroxymethyl)-3-(4-octylphenyl)Pyrrolidinium chloride]
[1]
  sensitivity in colony formation assays: resistant
[2]
  bound NADH fraction: increasing

Reference: patent US10995068B2, “Synthetic sphingolipid-like molecules, drugs, methods of their synthesis and methods of treatment” (The Regents of the University of California, priority 2015, dated 2021)
